Holding throughout (type): cell-based
For one assay, the system named is A431 (EGFR-WT). The assay is described as follows: Cell proliferation study (CellTiter-Glo, 72 hrs), A431. Particulars: Homo sapiens, A-431, A431 cells, CTG, * = average of multiple measurements. The essentials:
(§1)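 Cells were seeded overnight, then exposed for 72 hrs at 37 °C, 5% CO2 to 9 concentrations in 3.16-fold steps, 0.1% DMSO final, triplicate wells. Viability was read by CellTiter-Glo luminescence, with a T0 plate read at dosing. IC50 came from nonlinear sigmoidal dose-response fits.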
On the technique in general: ATP-based viability assays read luminescence as a measure of living cells.

The target in assay [1] is Ba/F3 EGFR-D770-N771ins_SVD (Homo sapiens, UniProt P00533, DUP768-770, cells depend on it). In words: Cell proliferation study (CellTiter-Glo, 72 hrs), Ba/F3 EGFR-D770-N771ins_SVD. The following applies: CTG, * = average of multiple measurements, read-out: Ba/F3 EGFR-D770-N771ins_SVD IC50. A digest of the protocol: as §1
Sequence of Ba/F3 EGFR-D770-N771ins_SVD (P00533 with tags, fused parts or gaps DUP768-770): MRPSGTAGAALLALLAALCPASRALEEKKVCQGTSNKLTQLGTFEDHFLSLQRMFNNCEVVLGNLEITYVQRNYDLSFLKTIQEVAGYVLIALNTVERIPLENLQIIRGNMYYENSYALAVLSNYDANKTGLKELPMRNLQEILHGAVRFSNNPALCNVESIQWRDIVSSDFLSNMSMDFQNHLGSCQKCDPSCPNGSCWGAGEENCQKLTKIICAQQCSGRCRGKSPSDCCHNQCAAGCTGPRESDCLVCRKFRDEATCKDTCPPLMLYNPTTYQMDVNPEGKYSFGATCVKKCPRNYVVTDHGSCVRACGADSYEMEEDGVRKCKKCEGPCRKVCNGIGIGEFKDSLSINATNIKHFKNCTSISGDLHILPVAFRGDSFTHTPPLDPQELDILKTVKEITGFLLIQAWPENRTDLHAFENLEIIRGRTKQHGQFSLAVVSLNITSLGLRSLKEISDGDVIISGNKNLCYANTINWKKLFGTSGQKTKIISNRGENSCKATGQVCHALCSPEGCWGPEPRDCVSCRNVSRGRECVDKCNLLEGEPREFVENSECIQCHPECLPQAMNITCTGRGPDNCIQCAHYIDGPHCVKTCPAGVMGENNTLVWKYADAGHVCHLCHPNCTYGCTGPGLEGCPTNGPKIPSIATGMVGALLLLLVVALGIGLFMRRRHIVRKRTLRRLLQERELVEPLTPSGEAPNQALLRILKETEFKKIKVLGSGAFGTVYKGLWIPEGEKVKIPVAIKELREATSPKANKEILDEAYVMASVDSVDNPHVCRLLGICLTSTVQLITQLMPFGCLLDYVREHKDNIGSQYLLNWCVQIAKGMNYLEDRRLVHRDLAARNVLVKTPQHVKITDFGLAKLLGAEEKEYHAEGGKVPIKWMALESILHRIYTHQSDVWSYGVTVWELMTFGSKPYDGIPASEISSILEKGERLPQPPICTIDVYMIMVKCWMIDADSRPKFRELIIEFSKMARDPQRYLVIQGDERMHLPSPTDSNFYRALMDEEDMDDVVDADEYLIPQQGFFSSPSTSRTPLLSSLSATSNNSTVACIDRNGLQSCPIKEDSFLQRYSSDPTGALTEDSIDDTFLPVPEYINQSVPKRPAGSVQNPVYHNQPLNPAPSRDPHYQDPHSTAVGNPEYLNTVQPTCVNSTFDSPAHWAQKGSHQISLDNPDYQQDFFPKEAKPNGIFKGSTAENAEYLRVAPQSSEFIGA
Assay [2] concerns the target Ba/F3 EGFR-V769_D770insASV (Homo sapiens, UniProt P00533, DUP767-769, cells depend on it). The assay is described as follows: Cell proliferation study (CellTiter-Glo, 72 hrs), Ba/F3 EGFR-V769_D770insASV. Particulars: CTG, * = average of multiple measurements, read-out: Ba/F3 EGFR-V769_D770insASV IC50. The essentials:
as §1

Sequence of Ba/F3 EGFR-V769_D770insASV (P00533 with tags, fused parts or gaps DUP767-769): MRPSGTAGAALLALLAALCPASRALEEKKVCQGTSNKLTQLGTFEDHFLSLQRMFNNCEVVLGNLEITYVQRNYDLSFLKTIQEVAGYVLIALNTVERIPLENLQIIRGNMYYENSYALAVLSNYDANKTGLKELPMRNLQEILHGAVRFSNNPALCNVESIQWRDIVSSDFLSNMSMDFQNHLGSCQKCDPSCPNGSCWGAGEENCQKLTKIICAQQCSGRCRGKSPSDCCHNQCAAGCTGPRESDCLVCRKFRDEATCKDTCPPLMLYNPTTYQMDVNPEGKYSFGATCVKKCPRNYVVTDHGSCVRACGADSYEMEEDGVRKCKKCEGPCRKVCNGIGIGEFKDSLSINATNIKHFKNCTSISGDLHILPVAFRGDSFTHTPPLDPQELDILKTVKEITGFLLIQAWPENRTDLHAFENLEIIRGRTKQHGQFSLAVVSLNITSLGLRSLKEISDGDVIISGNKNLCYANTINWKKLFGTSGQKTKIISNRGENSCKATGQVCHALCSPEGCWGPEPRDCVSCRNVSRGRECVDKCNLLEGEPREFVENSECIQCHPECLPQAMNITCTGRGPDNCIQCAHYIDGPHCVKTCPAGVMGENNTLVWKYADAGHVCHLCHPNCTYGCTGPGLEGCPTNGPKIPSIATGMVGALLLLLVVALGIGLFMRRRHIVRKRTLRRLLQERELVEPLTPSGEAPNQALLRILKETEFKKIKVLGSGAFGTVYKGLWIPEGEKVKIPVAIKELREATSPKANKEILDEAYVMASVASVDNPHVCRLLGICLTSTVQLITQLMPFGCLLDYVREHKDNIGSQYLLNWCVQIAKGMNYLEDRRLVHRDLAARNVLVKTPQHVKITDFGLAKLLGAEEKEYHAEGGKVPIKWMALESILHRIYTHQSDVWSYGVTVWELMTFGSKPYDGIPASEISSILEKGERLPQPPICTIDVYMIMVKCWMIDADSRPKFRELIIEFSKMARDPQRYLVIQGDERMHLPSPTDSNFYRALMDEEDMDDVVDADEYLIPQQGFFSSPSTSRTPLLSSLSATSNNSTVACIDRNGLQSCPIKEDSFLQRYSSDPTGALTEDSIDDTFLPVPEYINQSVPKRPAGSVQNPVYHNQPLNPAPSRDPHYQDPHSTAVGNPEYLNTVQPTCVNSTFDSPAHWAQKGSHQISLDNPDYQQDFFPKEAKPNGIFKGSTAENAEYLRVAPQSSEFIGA

In the case of `C=CC(=O)Nc1cc(Nc2ncc(C(=O)OC(C)C)c(N3CC(C)(C)c4ccccc43)n2)c(OC)cc1N(C)CCN(C)C` [Example 85, isopropyl 2-((5-acrylamido-4-((2-(dimethylami-no)ethyl)(methyl)amino)-2-methoxy-phenyl)amino)-4-(3,3-dimethylindolin-1-yl)pyrimidine-5-carboxylate], the half-maximal inhibitory concentration (IC50) (commonly the concentration needed to halve the response being measured) in the assay on A431 (EGFR-WT) was found to be 0.561 µM. The GI50 in assay [1] came out at 0.0236 µM; in assay [2], 0.0138 µM.

In the assay on A431 (EGFR-WT), `C=CC(=O)Nc1cc(Nc2ncc(C(=O)OC(C)C)c(N3CC4(CC4)c4ncccc43)n2)c(OC)cc1N1CCC[C@@H]1CN(C)C` [Example 86, isopropyl (R)-2-((5-acrylamido-4-(2-((dimethyl-amino)methyl)pyrrolidin-1-yl)-2-meth-oxyphenyl)amino)-4-(spiro(cyclopro-pane-1,3′-pyrrolo[3,2-b]pyridin)-1′(2′H)-yl)pyrimidine-5-carboxylate] yielded an IC50 of 0.0141 µM. For the same molecule, the GI50 in assay [1] is 0.0098 µM; in assay [2] it was 0.008 µM.

Turning to `C=CC(=O)Nc1cc(Nc2ncc(C(=O)OC(C)C)c(N3CC(C)(C)c4ccccc43)n2)c(OC)cc1N1C[C@@H](F)C[C@@H]1CN(C)C` [Example 87, isopropyl 2-((5-acrylamido-4-((2R,4S)-2-((di-methylamino)methyl)-4-fluoro-pyrrolidin-1-yl)-2-methoxy-phenyl)amino)-4-(3,3-dimethyl-indolin-1-yl)pyrimidine-5-carboxylate], the half-inhibitory concentration (IC50) with A431 (EGFR-WT) came out at 0.0581 µM. In addition, the GI50 stood at 0.0258 µM in assay [1] and 0.0125 µM in assay [2].

`C=CC(=O)Nc1cc(Nc2ncc(C(=O)OC(C)C)c(N3CC(C)(C)c4ncccc43)n2)c(OC)cc1N1C[C@@H](F)C[C@@H]1CN(C)C` [Example 88, isopropyl 2-((5-acrylamido-4-((2R,4S)-2-((di-methylamino)methyl)-4-fluoro-pyrrolidin-1-yl)-2-methoxy-phenyl)amino)-4-(3,3-dimethyl-2,3-dihydro-1H-pyrrolo[3,2-b]pyridin-1-yl)pyrimidine-5-carboxylate] returned a concentration for half-maximal inhibition (IC50) in the assay with A431 (EGFR-WT) of 0.0209 µM. Moreover, the GI50 in assay [1] worked out at 0.0154 µM; in assay [2], 0.0092 µM.

As for `C=CC(=O)Nc1cc(Nc2ncc(C(=O)OC(C)C)c(N3CC(C)(C)c4nc(C#CC)ccc43)n2)c(OC)cc1N(C)CCN(CC)CC` [Example 89, isopropyl 2-((5-acrylamido-4-((2-(diethyl-amino)ethyl)(methyl)amino)-2-methoxyphenyl)amino)-4-(3,3-dimethyl-5-(prop-1-yn-1-yl)-2,3-dihydro-1H-pyrrolo[3,2-b]pyridin-1-yl)pyrimidine-5-carboxylate], the IC50 in the assay with A431 (EGFR-WT) worked out at 0.177 µM. The values for the GI50 in assay [1] and in assay [2] were 0.0131 µM and 0.242 µM, respectively.

Molecule `C=CC(=O)Nc1cc(Nc2ncc(C(=O)OC(C)C)c(N3CC(C)(C)c4cc(F)c(F)cc43)n2)c(OC)cc1N(C)CCN(C)C` [Example 91, isopropyl 2-((5-acrylamido-4-((2-(dimethylami-no)ethyl)(methyl)amino)-2-methoxy-phenyl)amino)-4-(5,6-difluoro-3,3-dimethylindolin-1-yl)pyrimidine-5-carboxylate] came in with an IC50 in the assay with A431 (EGFR-WT) of 1.08 µM. In addition, the results for the GI50 in assay [1] and in assay [2] were 0.0375 µM and 0.0322 µM, respectively.

In the assay with A431 (EGFR-WT), `C=CC(=O)Nc1cc(Nc2ncc(C(=O)OC(C)C)c(N3CC(C)(C)c4cc(F)c(F)cc43)n2)c(OC)cc1N1CCC[C@@H]1CN(C)C` [Example 92, isopropyl (R)-2-((5-acrylamido-4-(2-((dimethyl-amino)methyl)pyrrolidin-1-yl)-2-meth-oxyphenyl)amino)-4-(5,6-difluoro-3,3-dimethylindolin-1-yl)pyrimidine-5-carboxylate] registered an IC50 of 0.963 µM. The GI50 in assay [1] came to 0.0332 µM; in assay [2], 0.0279 µM.

As for `C=CC(=O)Nc1cc(Nc2ncc(C(=O)OC(C)C)c(N3CC(C)(C)c4cc(F)c(F)cc43)n2)c(OC)cc1N1C[C@@H](F)C[C@@H]1CN(C)C` [Example 93, isopropyl 2-((5-acrylamido-4-((2R,4S)-2-((di-methylamino)methyl)-4-fluoro-pyrrolidin-1-yl)-2-methoxy-phenyl)amino)-4-(5,6-difluoro-3,3-dimethylindolin-1-yl)pyrimidine-5-carboxylate], the IC50 in the assay with A431 (EGFR-WT) came to 0.778 µM. The figures for the GI50 in assay [1] and in assay [2] were 0.0346 µM and 0.0288 µM, respectively.

The record behind these values is patent publication US12692264B2, “Pyrimidine or pyridine derivative, preparation method therefor, and application thereof in pharmacy” (ABBISKO THERAPEUTICS CO., LTD., priority 2021, dated 2026).
